Source: patent US6064908A, “Device for ionophoresis comprising at least a membrane electrode assembly, for the transcutaneous administration of active principles to a subject” (Elf Aquitaine, priority 1996, dated 2000)

Assays:
nude rat skin = assay: transdermic passage of pentasaccharide sodium salt by iontophoresis at set intensity through nude rat skin; format: in vitro ADME; settings: for Utilization factor of the active principle: quantity at 22 hours/initial quantity
Experimental: The procedure was carried out in iontophoresis cells with identical structure. Each iontophoresis cell consisted of three coaxial, adjacent cylindrical compartments of 2 cm^2 cross section, namely, in this order, a donor compartment, a receiver compartment and a back electrode compartment, these three compartments each being separated from the next in leaktight fashion by a piece of nude rat skin from the same batch, serving as a skin sample for studying the transdermic diffusion. […] The receiver compartment, with a volume of 10 ml, contained a 9 g/liter solution of NaCl and was agitated using a magnetic bar. The back electrode compartment, with a volume of 0.5 ml, contained a 2% by weight aqueous solution of NaCl. At its end opposite the receiver compartment, the donor compartment was fitted with a negative electrode or cathode consisting of a 15 μm thick film of silver chloridized on one face to contain an AgCl layer corresponding to 2 mAh/cm^2. In the same way as the donor compartment, the back electrode compartment was equipped with a positive electrode or anode (back electrode) consisting of a 15 μm silver film weakly chloridized on the surface (a quantity of AgCl corresponding to 0.1 mAh/cm^2). The chloridized face of each electrode was turned towards the rat skin sample.
The rat skin samples had had the subcutaneous tissues removed and were preserved by freezing at -40° C. until they were fitted in the iontophoresis cell, with the dermal faces turned towards the receiver compartment, after having spent 15 minutes in physiological salt solution.
For each of the tests which were carried out, six identical iontophoresis cells were started up simultaneously. The active exchange surface was 2 cm^2 for each skin sample. […]
At the end of the said period, an aliquot of the medium contained in the receiver compartment was taken, and the quantity of pentasaccharide which had passed through the skin separating the donor and receiver compartments of each cell was determined by assaying. A second sample was taken 22 hours after the start of each experiment, i.e. 17 hours after the end of the electric signal, in order to allow a significant proportion of the quantities of pentasaccharide active principle held in the skin sample to diffuse in the absence of subcutaneous blood circulation.
Five tests 1a to 1e were carried out as follows:
For each of the tests, the average antifactor Xa activity per ml of medium was determined on aliquots taken from the receiver compartments of the six cells, this representing the quantity of pentasaccharide which had diffused into these compartments after the 5 hours of applying the current and 22 hours after the start of each experiment, i.e. 17 hours after the end of the said current.
The assay of the pentasaccharide in the receiver compartment was based on investigating its antifactor Xa activity. […] The calibration curve was established using a "Golden Standard" pentasaccharide solution to which an antifactor Xa activity equal to 13 units per ml was assigned.
The data presented in this table are average results calculated over a series of six identical cells receiving the same quantities of electricity.

factor Xa = assay: antifactor Xa activity of the active principle; format: biochemical; settings: sodium salt
Experimental: The assay of the pentasaccharide in the receiver compartment was based on investigating its antifactor Xa activity. The assay was carried out either directly on the medium sample from the receiver compartment or after dilution, using a ROTACHROM HEPARIN 8® assay kit, with a complementary buffer for the assay instrument and the bovine antithrombin III, these various elements being supplied by the company STAGO, using a HITACHI 717 assay instrument. The calibration curve was established using a "Golden Standard" pentasaccharide solution to which an antifactor Xa activity equal to 13 units per ml was assigned.

[1] = Test 1a: no membrane, 5 mg/cm^2, 1 mAh/cm^2
[2] = Test 1b: no membrane, 1 mg/cm^2, 1 mAh/cm^2
[3] = Test 1c: cellulose acetate/POEG membrane 75 μm, 1 mg/cm^2, 0.9 mAh/cm^2
[4] = Test 1e: PEBAX MV 1074 membrane 50 μm, hydrogel, 0.5 mg/cm^2, 1 mAh/cm^2
[5] = Test 1d (PEBAX MV 1041 membrane) vs Test 1b (no membrane)
[6] = Test 1d: PEBAX MV 1041 membrane 50 μm, 1 mg/cm^2, 1 mAh/cm^2

- Quantity of active principle at 5 hours (nude rat skin; Passive, no current, 5 mg/cm^2): 1 μg/cm^2
- Quantity of active principle at 22 hours (nude rat skin; Passive, no current, 5 mg/cm^2): 1.5 μg/cm^2
- Quantity of active principle per mAh (nude rat skin; Passive, no current, 5 mg/cm^2): 1.5 μg/cm^2
- aXa activity/ml at 5 hours (nude rat skin; Passive, no current, 5 mg/cm^2): 0.2 mL⁻¹
- aXa activity/ml at 22 hours (nude rat skin; Passive, no current, 5 mg/cm^2): 0.3 mL⁻¹
- Utilization factor of the active principle (nude rat skin; Passive, no current, 5 mg/cm^2): 0.03%
- Quantity of active principle at 5 hours (nude rat skin; [1]): 115 μg/cm^2
- Quantity of active principle at 22 hours (nude rat skin; [1]): 150 μg/cm^2
- Quantity of active principle per mAh (nude rat skin; [1]): 150 μg/cm^2
- aXa activity/ml at 5 hours (nude rat skin; [1]): 23 mL⁻¹
- aXa activity/ml at 22 hours (nude rat skin; [1]): 30 mL⁻¹
- Utilization factor of the active principle (nude rat skin; [1]): 3%
- Quantity of active principle at 5 hours (nude rat skin; [2]): 110 μg/cm^2
- Quantity of active principle at 22 hours (nude rat skin; [2]): 140 μg/cm^2
- Quantity of active principle per mAh (nude rat skin; [2]): 140 μg/cm^2
- aXa activity/ml at 5 hours (nude rat skin; [2]): 22 mL⁻¹
- aXa activity/ml at 22 hours (nude rat skin; [2]): 28 mL⁻¹
- Utilization factor of the active principle (nude rat skin; [2]): 14%
- Quantity of active principle at 5 hours (nude rat skin; [3]): 75 μg/cm^2
- Quantity of active principle at 22 hours (nude rat skin; [3]): 110 μg/cm^2
- Quantity of active principle per mAh (nude rat skin; [3]): 125 μg/cm^2
- aXa activity/ml at 5 hours (nude rat skin; [3]): 15 mL⁻¹
- aXa activity/ml at 22 hours (nude rat skin; [3]): 20 mL⁻¹
- Utilization factor of the active principle (nude rat skin; [3]): 11%
- Quantity of active principle at 5 hours (nude rat skin; [4]): 245 μg/cm^2
- Quantity of active principle at 22 hours (nude rat skin; [4]): 310 μg/cm^2
- Quantity of active principle per mAh (nude rat skin; [4]): 310 μg/cm^2
- aXa activity/ml at 5 hours (nude rat skin; [4]): 49 mL⁻¹
- aXa activity/ml at 22 hours (nude rat skin; [4]): 62 mL⁻¹
- Utilization factor of the active principle (nude rat skin; [4]): 62%
- active principle depletion factor of the donor electrode assembly (in words) (nude rat skin; [5]): increased very substantially
- quantity of active principle administered per unit quantity of electricity (in words) (nude rat skin; [5]): increased very substantially
- Quantity of active principle at 5 hours (nude rat skin; [6]): 295 μg/cm^2
- Quantity of active principle at 22 hours (nude rat skin; [6]): 390 μg/cm^2
- Quantity of active principle per mAh (nude rat skin; [6]): 390 μg/cm^2
- aXa activity/ml at 5 hours (nude rat skin; [6]): 59 mL⁻¹
- aXa activity/ml at 22 hours (nude rat skin; [6]): 70 mL⁻¹
- Utilization factor of the active principle (nude rat skin; [6]): 39%
- passive transport of the pentasaccharide (in words) (nude rat skin; no current): very low
Compound: O=C(O)C1OC(OC2C(COS(=O)(=O)O)OC(OC3C(C(=O)O)OC(OC4C(COS(=O)(=O)O)OC(O)C(NS(=O)(=O)O)C4O)C(OS(=O)(=O)O)C3O)C(NS(=O)(=O)O)C2OS(=O)(=O)O)C(O)C(O)C1OC1OC(COS(=O)(=O)O)C(O)C(O)C1NS(=O)(=O)O (stereo not shown) [pentasaccharide]
- antifactor Xa activity (factor Xa): 0.65 "Golden Standard" units per microgram
